From patent US20240294551A1 (AMGEN INC., priority 2022, published 2024)

How the values were obtained:
[1] = target: His-tagged KRAS G12D protein (Homo sapiens (Human), UniProt P01116, G12D); test: KRAS G12D TR-FRET Assay; format: binding; conditions: read-out: KRAS G12D Binding IC50
Procedure, shortened: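 His-tagged KRAS G12D (diluted to 20 nM in pH 7.4 HEPES buffer with 10 mM MgCl2 and 10 μM GDP) was preincubated with titrated compound for 30 min at room temperature. Biotinylated KRPep-2d peptide (diluted to 20 nM) was then added for 1 h, and displacement was monitored by TR-FRET.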

[2] = target: GDP-bound KRAS protein (aa 1-169), containing both G12D and C118A amino acid substitutions (Homo sapiens (Human), UniProt P01116, C118A/G12D); test: KRAS G12D Coupled Nucleotide Exchange Assay; format: biochemical; conditions: read-out: KRAS G12D Coupled Exchange IC50
[3] = test system: Phosphorylation of ERK1/2 in AsPC-1 cells; test: Phospho-ERK1/2 MSD Assay; format: cell-based, human; conditions: Homo sapiens, ASPC1, 2 h, read-out: 2 h p-ERK (AsPC-1 cells), IC50
Procedure, shortened: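 Read-out: MSD electrochemiluminescent detection of phosphorylated ERK1/2 in whole-cell lysates, fitted to a 4-parameter logistic curve for IC50. Prior to lysis, AsPC-1 cells (25,000 per well) received a 2 h compound dose-response at 37 °C.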

[4] = test system: AsPC-1 cells; test: AsPC-1 CTG Assay (CellTiter-Glo cell viability); format: cell-based, human; conditions: Homo sapiens, ASPC1, 72 h, AsPC-1, 72 h; first value of the cell; read-out: G12D/C/V Cell Proliferation CTG (72 h) AsPC-1
Procedure, shortened: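 Human pancreatic AsPC-1 or colon SW620 cells in RPMI 1640 with 10% FBS, seeded overnight, then exposed to serially diluted compound for 72 h at 37 °C. CellTiter-Glo luminescence normalized to DMSO control; IC50 from a 4-parameter logistic model.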

[5] = test system: SW620 cells; test: SW620 CTG Assay (CellTiter-Glo cell viability); format: cell-based, human; conditions: Homo sapiens, SW-620; SW620, 72 h; third value of the cell; read-out: G12D/C/V Cell Proliferation CTG (72 h) SW620
Description: AsPC-1 and SW620 CTG Assay Protocols
AsPC-1 (human pancreatic adenocarcinoma; ATCC CRL-1682) or SW620 (human colon adenocarcinoma; ATCC CCL-227) cells were cultured in RPMI 1640 medium containing 10% fetal bovine serum and 1× penicillin/streptomycin/L-glutamine. Cells were seeded in 384-well plates at a density of 3.33E+04 cells/mL and incubated at 37° C., 5% CO2, overnight. Serially-diluted compound or DMSO was added to the cells, and plates were incubated at 37° C., 5% CO2 for 72 h. Cell viability was measured using a CellTiter-Glo® Luminescent Cell Viability Assay kit (Promega) according to the manufacturer's protocol. The luminescence signal of treated samples was normalized to DMSO control, and data were analyzed using a 4-parameter logistic model to calculate IC50 values.

[6] = test system: MIA PaCa-2 cells; test: MIA PaCa-2 CTG Assay (CellTiter-Glo cell viability); format: cell-based, human; conditions: Homo sapiens; Mia PaCa-2, 72 h; second value of the cell; read-out: G12D/C/V Cell Proliferation CTG (72 h) Mia PaCa-2
Procedure, shortened: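 Human pancreatic carcinoma cells in RPMI 1640 with 10% FBS, seeded at 1.67E+04 cells/mL and left overnight, were treated with serially diluted compound for 72 h at 37° C, 5% CO2. Viability was read by CellTiter-Glo luminescence normalized to DMSO; IC50 came from a 4-parameter logistic fit.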

Chain of His-tagged KRAS G12D protein (P01116 other isoform, or with tags, fused parts or gaps G12D): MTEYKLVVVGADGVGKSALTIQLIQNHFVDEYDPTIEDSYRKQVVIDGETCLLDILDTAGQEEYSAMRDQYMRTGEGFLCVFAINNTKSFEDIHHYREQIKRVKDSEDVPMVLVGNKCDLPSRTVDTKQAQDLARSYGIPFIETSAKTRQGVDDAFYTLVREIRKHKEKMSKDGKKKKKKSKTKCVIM
Chain of GDP-bound KRAS protein (aa 1-169), containing both G12D and C118A amino acid substitutions (P01116 other isoform, or with tags, fused parts or gaps G12D/C118A): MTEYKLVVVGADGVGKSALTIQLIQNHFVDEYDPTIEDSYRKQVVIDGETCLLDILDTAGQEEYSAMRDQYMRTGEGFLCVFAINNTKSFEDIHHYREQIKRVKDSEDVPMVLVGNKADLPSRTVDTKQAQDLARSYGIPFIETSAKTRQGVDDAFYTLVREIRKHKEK

| SMILES | IC50 [1] [nM] | IC50 [2] [nM] | IC50 [3] [nM] | IC50 [4] [nM] | IC50 [5] [nM] | IC50 [6] [nM] |
| --- | --- | --- | --- | --- | --- | --- |
| Cc1cc2[nH]ncc2c2c1[C@H]1C[C@H]1COC(=O)O[C@@H]1CCCN(C1)c1nc(OC[C@@]34CCCN3C[C@H](F)C4)nc3c(F)c-2ncc13 [Example 110] | 3 | 2 | 4 | 80 | 10 | 20 |
| Cc1cc2[nH]ncc2c2c1CCCCOC[C@@H]1CCCN(C1)c1nc(OC[C@@]34CCCN3C[C@H](F)C4)nc3c(F)c-2ncc13 [Example 129, (17R)-30-Fluoro-24-(((2R,7aS)-2-fluorotetrahydro-1H-pyrrolo[1,2-a]pyrrol-7a(5H)-yl)methoxy)-9-methyl-15-oxa-5,6,21,23,25,29-hexaazahexacyclo[24.3.1.1˜17,21˜.0˜2,10˜.0˜3,7˜.0˜22,27˜]hentriaconta-1(30),2,4,7,9,22,24,26,28-nonaene bis(2,2,2-trifluoroacetate)] | 4 | 2 | 20 | 170 | 67.4 | 90 |
| Fc1c2ncc3c(nc(OC[C@@]45CCCN4C[C@H](F)C5)nc13)N1CCCCC(COCCCCc3c(Cl)cc4[nH]ncc4c3-2)C1 (some centres unmarked) [Example 141] | 2 | 1 | 6 | 120 | 20.2 | 20 |
| Fc1c2ncc3c(nc(OC[C@@]45CCCN4C[C@H](F)C5)nc13)N1CCC[C@@](F)(COCCCCc3c(Cl)cc4[nH]ncc4c3-2)C1 [Example 151, (17S)-9-chloro-17,30-difluoro-24-(((2R,7aS)-2-fluorotetrahydro-1H-pyrrolo[1,2-a]pyrrol-7a(5H)-yl)methoxy)-15-oxa-5,6,21,23,25,29-hexaazahexacyclo[24.3.1.1~17,21~.0~2,10~.0~3,7~.0~22,27~]hentriaconta-1(30),2,4,7,9,22,24,26,28-nonaene] | 4 | 2 | 13 | 200 | 38.7 | 70 |
| Cc1cc2[nH]ncc2c2c1CCCCC(=O)O[C@@H]1CCCN(C1)c1nc(OC[C@@]34CCCN3C[C@H](F)C4)nc3c(F)c-2ncc13 [Example 31, (17R)-30-Fluoro-24-(((2R,7aS)-2-fluorotetrahydro-1H-pyrrolo[1,2-a]pyrrol-7a(5H)-yl)methoxy)-9-methyl-16-oxa-5,6,21,23,25,29-hexaazahexacyclo[24.3.1.1˜17,21.0˜2,10˜.0˜3,7˜.0˜22,27˜]hentriaconta-1(30),2,4,7,9,22,24,26,28-nonaen-15-one bis(2,2,2-trifluoroacetate)] | – | – | 33 | – | 133 | 170 |
| Fc1c2ncc3c(nc(OC[C@@]45CCCN4C[C@H](F)C5)nc13)N1CCCC(C1)c1cnn(n1)C/C=C/c1c(Cl)cc3[nH]ncc3c1-2 (some centres unmarked) [Example 149] | 60 | 34 | 33 | 470 | 154 | – |
| Fc1c2ncc3c(nc(OC[C@@]45CCCN4C[C@H](F)C5)nc13)N1CCOC[C@@H](COCCCCc3c(Cl)cc4[nH]ncc4c3-2)C1 (single isomer, unassigned) [Example 137] | 4 | 2 | 47 | 420 | 96.7 | – |

The remaining lines, values ahead:

| IC50 [1] [nM] | IC50 [2] [nM] | IC50 [3] [nM] | IC50 [4] [nM] | IC50 [5] [nM] | IC50 [6] [nM] | SMILES |
| --- | --- | --- | --- | --- | --- | --- |
| – | – | 6 | 67 | 50 | 31 | CN(C)CC1(COc2nc3c4cnc(c(F)c4n2)-c2c(c(Cl)cc4[nH]ncc24)CCCOC(=O)O[C@@H]2COCCN3C2)CC1 [Example 195, (26S)-18-chloro-4-((1-((dimethylamino)methyl)cyclopropyl)methoxy)-32-fluoro-23,25,28-trioxa-1,3,5,9,14,15-hexaazahexacyclo[24.4.1.1~6,10~.0~2,7~.0~11,19~.0~12,16~]dotriaconta-2,4,6,8,10(32),11,13,16,18-nonaen-24-one] |
| 3 | 3 | 9 | 210 | 32.5 | – | Cc1cc2[nH]ncc2c2c1[C@H]1C[C@H]1COCC[C@@H]1CCCN(C1)c1nc(OC[C@@]34CCCN3C[C@H](F)C4)nc3c(F)c-2ncc13 [Example 153, (11S,13R,18S)-31-fluoro-25-(((2R,7aS)-2-fluorotetrahydro-1H-pyrrolo[1,2-a]pyrrol-7a(5H)-yl)methoxy)-9-methyl-15-oxa-5,6,22,24,26,30-hexaazaheptacyclo[25.3.1.1~18,22~.0~2,10~.0~3,7~.0~11,13~.0~23,28~]dotriaconta-1(31),2,4,7,9,23,25,27,29-nonaene] |
| 3 | 3 | 12 | 31 | 49 | – | O=C1OCCCc2c(Cl)cc3[nH]ncc3c2-c2ncc3c(nc(OC[C@@]45CCCN4C[C@H](F)C5)nc3c2F)N2CCC[C@](CF)(C2)O1 [Example 336, (17R)-9-chloro-30-fluoro-17-(fluoromethyl)-24-(((2R,7aS)-2-fluorotetrahydro-1H-pyrrolo[1,2-a]pyrrol-7a(5H)-yl)methoxy)-14,16-dioxa-5,6,21,23,25,29-hexaazahexacyclo[24.3.1.1~17,21~.0~2,10~.0~3,7~.0~22,27~]hentriaconta-1(30),2,4,7,9,22,24,26,28-nonaen-15-one] |
| 4 | 2 | 16.8 | 114 | 66 | – | Cc1cc2[nH]ncc2c2c1CCOC(=O)O[C@H]1C[C@]3(CCCN(C3)c3nc(OC[C@@H]4CCCN4C)nc4c(F)c-2ncc34)C1 (single isomer, unassigned) [Example 326] |
| 4 | 3 | 15.7 | 46 | 22 | – | Fc1c2ncc3c(nc(OC[C@@]45CCCN4C[C@H](F)C5)nc13)N1CCOC[C@H](C1)OC(=S)OCCCc1c(Cl)cc3[nH]ncc3c1-2 [Example 199, (26S)-18-chloro-32-fluoro-4-(((2R,7aS)-2-fluorotetrahydro-1H-pyrrolo[1,2-a]pyrrol-7a(5H)-yl)methoxy)-23,25,28-trioxa-1,3,5,9,14,15-hexaazahexacyclo[24.4.1.1~6,10~.0~2,7~.0~11,19~.0~12,16~]dotriaconta-2,4,6,8,10(32),11,13,16,18-nonaene-24-thione] |
| 12 | 3 | 110 | 720 | 367 | – | Fc1c2ncc3c(nc(OC[C@@]45CCCN4C[C@H](F)C5)nc13)N1CCC[C@H](C1)Cn1ncc(n1)CCc1c(Cl)cc3[nH]ncc3c1-2 [Example 156, (18R)-9-chloro-31-fluoro-25-(((2R,7aS)-2-fluorotetrahydro-1H-pyrrolo[1,2-a]pyrrol-7a(5H)-yl)methoxy)-5,6,15,16,22,24,26,30,33-nonaazaheptacyclo[25.3.1.1~13,16~.1~18,22~.0~2,10~.0~3,7~.0~23,28~]tritriaconta-1(31),2,4,7,9,13(33),14,23,25,27,29-undecaene] |
| 4 | 2 | 8.4 | 13 | 24 | – | C[C@@]12CCCN(C1)c1nc(OC[C@@]34CCCN3C[C@H](F)C4)nc3c(F)c(ncc13)-c1c(c(Cl)cc3[nH]ncc13)CCCOC(=O)O2 [Example 327, (17R)-9-chloro-30-fluoro-24-(((2R,7aS)-2-fluorotetrahydro-1H-pyrrolo[1,2-a]pyrrol-7a(5H)-yl)methoxy)-17-methyl-14,16-dioxa-5,6,21,23,25,29-hexaazahexacyclo[24.3.1.1~17,21~.0~2,10~.0~3,7~.0~22,27~]hentriaconta-1(30),2,4,7,9,22,24,26,28-nonaen-15-one] |
